From PubChem BioAssay AID190 (DTP/NCI, 2004)
“And” between values parts separate entries of the source, which are not always exact repeats. Identical values can stand only once. Toxic doses and inconclusive results are not listed.

System: AKR/Lw mice, AKR lymphoma ip, median survival T/C
Assay: NCI In Vivo Anticancer Drug Screen. Data for tumor model Lymphoma AKR (Transplanted) (intraperitoneal) in AKR/Lw mice
Details: endpoint: median survival time, higher = longer survival
Method: The antitumor activity of compounds was measured in mice bearing transplantable tumors. Survival or tumor size were measured and the results are expressed as the measurement made in the treated group (T) divided by the measurement made in the vehicle treated control group (C). The tumor model used in this assay is Lymphoma AKR (Transplanted) (intraperitoneal) in AKR/Lw mice

[1] = dose: 25.0 mg/kg/injection, schedule: Q01DX001 (ip), vehicle: saline
[2] = dose: 50.0 mg/kg/injection, schedule: Q01DX001 (ip), vehicle: saline
[3] = dose: 100.0 mg/kg/injection, schedule: Q01DX001 (ip), vehicle: saline
[4] = dose: 200.0 mg/kg/injection, schedule: Q01DX001 (ip), vehicle: saline
[5] = dose: 25.0 mg/kg/injection, schedule: Q04DX003 (ip), vehicle: Klucel (hydroxypropylcellulose) (HPC)
[6] = dose: 50.0 mg/kg/injection, schedule: Q04DX003 (ip), vehicle: Klucel (hydroxypropylcellulose) (HPC)
[7] = dose: 400.0 mg/kg/injection, schedule: Q01DX001 (ip), vehicle: saline
[8] = dose: 100.0 mg/kg/injection, schedule: Q01DX001 (ip), vehicle: Klucel (hydroxypropylcellulose) (HPC)
[9] = dose: 200.0 mg/kg/injection, schedule: Q01DX001 (ip), vehicle: Klucel (hydroxypropylcellulose) (HPC)
[10] = dose: 400.0 mg/kg/injection, schedule: Q01DX001 (ip), vehicle: Klucel (hydroxypropylcellulose) (HPC)
[11] = dose: 25.0 mg/kg/injection, schedule: Q04DX003 (ip), vehicle: saline
[12] = dose: 50.0 mg/kg/injection, schedule: Q04DX003 (ip), vehicle: saline
[13] = dose: 100.0 mg/kg/injection, schedule: Q04DX003 (ip), vehicle: saline

In the case of `CCCN(CCC)CC(C)=O`, the T/C (dose: 11.0 mg/kg/injection, schedule: Q01DX001 (ip), vehicle: saline) was 106 % of control, the T/C (dose: 17.0 mg/kg/injection, schedule: Q01DX001 (ip), vehicle: saline) was 103 % of control and the T/C [1] was 100 % of control. For the same compound, the T/C (dose: 37.5 mg/kg/injection, schedule: Q01DX001 (ip), vehicle: saline) was 100 % of control, the T/C [2] was 115 % of control and the T/C [3] was 105 % of control and 110 % of control.

`CCCCCCCCCCCCCCCC(=O)N(CCC#N)CCCCCCCCCN(CCC#N)C(=O)CCCCCCCCCCCCCCC` was tested, and the T/C [3] was 116 % of control and the T/C [4] was 94 % of control.

For `CCn1c(O)c(C=N)c(=O)n(CC)c1=O`, the T/C (dose: 12.0 mg/kg/injection, schedule: Q01DX001 (ip), vehicle: saline) was 97 % of control, the T/C (dose: 12.5 mg/kg/injection, schedule: Q04DX003 (ip), vehicle: Klucel (hydroxypropylcellulose) (HPC)) was 100 % of control and the T/C [1] was 111 % of control. The T/C [5] was 93 % of control, the T/C [2] was 94 % of control and the T/C [6] was 97 % of control.

In the case of `CC(C)(CNc1ccc(C(=O)O)cc1)[N+](=O)[O-]`, the T/C [3] was 102 % of control, the T/C [4] was 95 % of control and the T/C [7] was 86 % of control.

With `CN(C)C(C)(C)CNc1ccc(C(=O)O)cc1` the T/C [1] was 88 % of control, the T/C [2] was 91 % of control and 95 % of control and the T/C [3] was 97 % of control and 91 % of control.

In the case of `COc1ccc(C2c3cc4c(c(OC)c3CC3OCC(=O)C32)OCO4)cc1OC` (stereo unspecified), the T/C (dose: 25.0 mg/kg/injection, schedule: Q01DX009 (ip), vehicle: Klucel (hydroxypropylcellulose) (HPC)) was 110 % of control and the T/C (dose: 50.0 mg/kg/injection, schedule: Q01DX009 (ip), vehicle: Klucel (hydroxypropylcellulose) (HPC)) was 103 % of control.

For `COC(=O)CC(=O)c1ccc(C)cc1`, the T/C [8] was 100 % of control, the T/C [9] was 103 % of control and the T/C [10] was 120 % of control.

In the case of `COC(=O)C1CC2C(Cl)=C(Cl)C1(Cl)C2(Cl)Cl` (stereo unspecified), the T/C [11] was 108 % of control, the T/C [12] was 100 % of control and the T/C [3] was 96 % of control. For the same compound, the T/C [13] was 95 % of control, the T/C [4] was 105 % of control and the T/C [7] was 103 % of control.

`COc1cc([C@@H]2c3cc4c(cc3[C@@H](OC3OC5COC(C)OC5C(O)C3O)[C@H]3COC(=O)[C@H]23)OCO4)cc(OC)c1O` (stereo partly specified) was tested, and the T/C (dose: 5.0 mg/kg/injection, schedule: Q01DX009 (ip), vehicle: Klucel (hydroxypropylcellulose) (HPC)) was 321 % of control.

For `COc1cc2ccc(CC(=O)NCc3ccccc3)cc2cc1OC`, the T/C [3] was 117 % of control, the T/C [4] was 107 % of control and the T/C (dose: 200.0 mg/kg/injection, schedule: Q04DX003 (ip), vehicle: other) was 95 % of control. The T/C [7] was 103 % of control.

`COc1cc2c(cc1OC)C(C#N)C2` (stereo unspecified) was tested, and the T/C [8] was 100 % of control, the T/C [9] was 100 % of control and the T/C [10] was 94 % of control.

For `COc1ccc2c3c(ccc2c1)C(=O)C(C)(C#N)CC3` (stereo unspecified), the T/C (dose: 37.5 mg/kg/injection, schedule: Q01DX001 (ip), vehicle: Klucel (hydroxypropylcellulose) (HPC)) was 92 % of control, the T/C (dose: 75.0 mg/kg/injection, schedule: Q01DX001 (ip), vehicle: Klucel (hydroxypropylcellulose) (HPC)) was 94 % of control and the T/C (dose: 150.0 mg/kg/injection, schedule: Q01DX001 (ip), vehicle: Klucel (hydroxypropylcellulose) (HPC)) was 100 % of control. The T/C (dose: 300.0 mg/kg/injection, schedule: Q01DX001 (ip), vehicle: Klucel (hydroxypropylcellulose) (HPC)) was 107 % of control.

With `O=C1c2ccccc2-c2ncccc21` the T/C [8] was 100 % of control, the T/C [9] was 120 % of control and the T/C [10] was 93 % of control.

In the case of `c1ccc2c(c1)CNC2`, the T/C [3] was 97 % of control, the T/C [4] was 123 % of control and the T/C [7] was 111 % of control.

For `CC(CN1CC(=O)NC(=O)C1)N1CC(=O)NC(=O)C1` (stereo unspecified), the T/C (dose: 0.5 mg/kg/injection, schedule: Q01DX009 (ip), vehicle: saline) was 103 % of control, the T/C (dose: 1.6 mg/kg/injection, schedule: Q01DX009 (ip), vehicle: saline) was 116 % of control and the T/C (dose: 2.0 mg/kg/injection, schedule: Q01DX009 (ip), vehicle: saline) was 109 % of control. The T/C (dose: 2.5 mg/kg/injection, schedule: Q01DX009 (ip), vehicle: saline) was 90 % of control, the T/C (dose: 3.1 mg/kg/injection, schedule: Q01DX009 (ip), vehicle: saline) was 110 % of control and 113 % of control and the T/C (dose: 4.0 mg/kg/injection, schedule: Q01DX009 (ip), vehicle: saline) was 181 % of control. The T/C (dose: 5.0 mg/kg/injection, schedule: Q01DX009 (ip), vehicle: saline) was 106 % of control, the T/C (dose: 10.0 mg/kg/injection, schedule: Q01DX009 (ip), vehicle: saline) was 120 % of control and the T/C (dose: 12.5 mg/kg/injection, schedule: Q04DX003 (ip), vehicle: saline) was 88 % of control and 90 % of control. The T/C (dose: 20.0 mg/kg/injection, schedule: Q01DX009 (ip), vehicle: saline) was 150 % of control, the T/C [1] was 94 % of control and the T/C [11] was 105 % of control and 107 % of control. The T/C (dose: 30.0 mg/kg/injection, schedule: Q01DX009 (ip), vehicle: saline) was 152 % of control, the T/C (dose: 35.0 mg/kg/injection, schedule: Q01DX009 (ip), vehicle: saline) was 152 % of control and the T/C [2] was 97 % of control and 106 % of control. The T/C [12] was 92 % of control and 100 % of control, the T/C (dose: 75.0 mg/kg/injection, schedule: Q04DX003 (ip), vehicle: saline) was 94 % of control and the T/C (dose: 150.0 mg/kg/injection, schedule: Q01DX001 (ip), vehicle: water) was 108 % of control. For the same compound, the T/C (dose: 150.0 mg/kg/injection, schedule: Q04DX003 (ip), vehicle: saline) was 123 % of control, the T/C (dose: 200.0 mg/kg/injection, schedule: Q01DX009 (ip), vehicle: saline) was 108 % of control and the T/C (dose: 300.0 mg/kg/injection, schedule: Q01DX009 (ip), vehicle: saline) was 106 % of control. For the same compound, the T/C (dose: 300.0 mg/kg/injection, schedule: Q04DX003 (ip), vehicle: saline) was 100 % of control, the T/C (dose: 400.0 mg/kg/injection, schedule: Q01DX009 (ip), vehicle: saline) was 100 % of control and the T/C (dose: 600.0 mg/kg/injection, schedule: Q01DX001 (ip), vehicle: water) was 111 % of control.

`Clc1nnc(Nc2ccccc2)c2ccccc12` was tested, and the T/C [5] was 86 % of control, the T/C [6] was 98 % of control and the T/C [8] was 92 % of control. For the same compound, the T/C (dose: 100.0 mg/kg/injection, schedule: Q04DX003 (ip), vehicle: Klucel (hydroxypropylcellulose) (HPC)) was 92 % of control, the T/C [13] was 100 % of control and the T/C [9] was 96 % of control. For the same compound, the T/C [10] was 96 % of control.

For `CC(=O)CC(=O)c1ccccc1`, the T/C [8] was 106 % of control, the T/C [9] was 106 % of control and the T/C [10] was 103 % of control.

For `S=C1NC(c2ccccc2)NC(c2ccccc2)S1` (stereo unspecified), the T/C [8] was 92 % of control, the T/C [9] was 92 % of control and the T/C [10] was 96 % of control.
